# Source: ChEMBL document CHEMBL1795228, “Air to lung partition coefficients for volatile organic compounds and blood to lung partition coefficients for volatile organic compounds and drugs” (Eur J Med Chem, 2008)
# Assay: In-vivo blood/plasma to lung partition coefficients of the compound, logP(lung) in rat
# Type: ADME, cell-free
# Conditions: octanol/water
row,Compound,logP(lung)
1,C=CCOc1ccccc1OCC(O)CNC(C)C (configuration not stated) [OXPRENOLOL],1.27
2,Cc1ncc2n1-c1ccc(Cl)cc1C(c1ccccc1F)=NC2 [MIDAZOLAM],0.6

# Assay: In-vivo serum to lung partition coefficients of the compound, logP(lung) in rat
# Type: ADME
# Conditions: octanol/water
row,Compound,logP(lung)
1,COC(=O)Nc1nc2cc(C(=O)N3CCN(c4ccccn4)CC3)ccc2[nH]1,-0.29
2,CC[C@H]1OC(=O)[C@H](C)[C@@H](O[C@H]2C[C@@](C)(OC)[C@@H](O)[C@H](C)O2)[C@H](C)[C@@H](O[C@@H]2O[C@H](C)C[C@H](N(C)C)[C@H]2O)[C@](C)(O)C[C@@H](C)CN(C)[C@H](C)[C@@H](O)[C@]1(C)O [AZITHROMYCIN],2.08
3,CC[C@H]1OC(=O)[C@H](C)[C@@H](O[C@H]2C[C@@](C)(OC)[C@@H](O)[C@H](C)O2)[C@H](C)[C@@H](O[C@@H]2O[C@H](C)C[C@H](N(C)C)[C@H]2O)[C@](C)(O)C[C@@H](C)C(=O)[C@H](C)[C@@H](O)[C@]1(C)O [ERYTHROMYCIN],1.62

# Assay: In-vivo blood to lung partition coefficients of the compound, logP(lung) in rat
# Type: ADME
# Conditions: not given
row,Compound,logP(lung)
1,O=C(CCCN1CCC(O)(c2ccc(Cl)cc2)CC1)c1ccc(F)cc1 [HALOPERIDOL],1.73
2,OCCOCCN1CCN(C(c2ccccc2)c2ccc(Cl)cc2)CC1 (configuration not stated) [HYDROXYZINE],1.06
3,CCc1cc2c(s1)N(C)C(=O)CN=C2c1ccccc1Cl [CLOTIAZEPAM],1.04
4,CC(=O)Nc1ccc(OCC(O)CNC(C)C)cc1 (configuration not stated) [PRACTOLOL],0.48
5,CN(C)CCCN1c2ccccc2Sc2ccc(Cl)cc21 [CHLORPROMAZINE],1.81
6,COc1ccc(CCCn2ncc3c2nc(N)n2nc(-c4ccco4)nc32)cc1,0.62
7,CN1CCN(CCCN2c3ccccc3Sc3ccc(C(F)(F)F)cc32)CC1 [TRIFLUOPERAZINE],1.33
